Patent publication US20100179192A1, “USE OF NITRIC OXIDE RELEASING COMPOUNDS IN THE TREATMENT OF CHRONIC PAIN” (NICOX S.A., priority 2007, published 2010)

Test system: hyperalgesic responses following chronic constriction injuries of the rat sciatic nerve
Assay: Chronic constriction injury (CCI)-induced mechanical hyperalgesia in rats (modified Randall-Selitto method)
Type: in vivo
Settings: for Contra-PWT30 min (paw withdrawal threshold, contralateral unlesioned paw) / Ipsi-PWT30 min (paw withdrawal threshold, CCI-lesioned ipsilateral paw) / PWT30 min: 30 min after treatment; for Contra-PWT30 min (paw withdrawal threshold, contralateral unlesioned paw) / Ipsi-PWT30 min (paw withdrawal threshold, CCI-lesioned ipsilateral paw): cut-off 240 g; for Ipsi-PWT30 min (paw withdrawal threshold, CCI-lesioned ipsilateral paw): 7 days after sciatic nerve ligation; for PWT30 min / PWT60 min: Table II, 175 μmol/kg sc each agent, alone or in combination; for PWT60 min: 60 min after treatment
Experimental: The efficacy of nitrooxyderivatives of antioxidant compounds of formula (I) in the treatment of neuropathic pain was evaluated in the model of hyperalgesic responses following chronic constriction injuries of the rat sciatic nerve. The pharmacological activity of the compounds of formula (I) was compared to that of the known analgesic drugs. The parent not-derivatized antioxidant drug was used as reference. The efficacy of the equimolar combination of compounds of formula (I) and analgesic drugs selected between the group of gabapentin, tiagabine and pregabalin was also evaluated, on the same experimental model.
The method described by Bennet and Xie (1988) was generally followed. Rats were anesthetized with chloral hydrate (380 mg/kg ip, Sigma). The right common sciatic nerve was exposed at the level of the middle of the high by blunt dissection through the biceps femoris. Proximal to the sciatic's trifurcation, about 12 mm of nerve was freed of adhering tissue and four ligatures (3/0 silk suture) were tied loosely around it with about 1 mm spacings. Ligatures were tied such that the diameter of the nerve was only barely constricted. […] The incision was closed in layers. The experiments were then carried out 1 week after surgery. Mechanical hyperalgesia was determined with an analgesimeter (Ugo Basile, Italy), using the modified Randall-Selitto method. Briefly, a conical stylus with a hemispherical tip was places upon the middle of hind paw dorsum. The animal was gently restrained and calibrated pressure of gradually increasing intensity was applied until the rat withdrew the hindpaw. Threshold pressure (g) of both hindpaws was determined every 15 minutes, with two measurements before the treatments (pretest), and from 15 to 60 minutes after treatment. An arbitrary cut-off value of 240 g was adopted.

SMILES	Contra-PWT30 min (paw withdrawal threshold, contralateral unlesioned paw) (175 μmol/kg sc) [g]	sedative effect (175 μmol/kg sc, observed in CCI experiment)	Ipsi-PWT30 min (paw withdrawal threshold, CCI-lesioned ipsilateral paw) (175 μmol/kg sc) [g]	PWT30 min [g]	PWT60 min [g]
COc1cc(/C=C/C(=O)OCCCCO[N+](=O)[O-])ccc1O [Ferulic acid 4-(nitrooxy)butyl ester, Ferulic Acid 4-(nitrooxy)butyl ester]	98.5 ± 4.8	did not induce any appreciable sedative effect	76.3 ± 4.8	76.3 ± 4.8	37.5 ± 5.9
COc1cc(/C=C/C(=O)O)ccc1O [Ferulic acid]	71.4 ± 11.1		37.9 ± 15.5		
NCC1(CC(=O)O)CCCCC1 [Gabapentin]	84.3 ± 3.9		75.1 ± 9.8	75.1 ± 9.8	37.6 ± 7.0
